Tests used:
[1] = system: Spiral ganglion neurons (SGNs); test: Survival of spiral ganglion neurons (Example C); type: cell-based, rat; settings: 1 μM; compared to a vehicle-only control, 0.01% DMSO; FIG. 6C
Description: Spiral ganglion neurons (SGNs) were harvested from P1-P3 rates, dissociated, and cultured in 96-well plates. The SGNs were treated with neurotrophins and/or antibodies at various concentrations. After about 24 hours, media was exchanged to serum-free media and the neurotrophins and/or antibodies were replenished. Cells were cultured for an additional 48-72 hours before being fixed using 4% paraformaldehyde (PFA) and stained using 4′,6-diamidino-2-phenylindole (DAPI). […] Surviving neurons were identified as cells with intact soma and at least one neurite.

SGNs = test: SGN complexity, dissociated SGNs (Example D); type: cell-based, rat; settings: differences upon treatment, FIG. 7D
Source text: SGNs were immunostained, imaged, and batch analyzed with PerkinElmer Harmony 4.6 software. Changes in the complexities of SGNs upon treatment with various agents were examined. […] All of the images in a single well were stitched together and analyzed. SGN somas are shown in the upper right panel and SGN neurites are shown in the lower left panel. As shown in the lower right panel, each neurite tree is assigned to a single cell for analysis. Depending on the stitching, occasionally neurites will not meet the criteria due to gaps that exceed a user-defined threshold.

## OCCN(CCO)c1ccc(C(c2ccc(Cl)cc2)c2ccc(N(CCO)CCO)cc2)cc1 [LM22b10]
[1]
  Survival of SGNs: not improved

B1: neurotrophin-3 (protein, UniProt P20783 139-257, looked up)
Neurotrophin-3: YAEHKSHRGEYSVCDSESLWVTDKSSAIDIRGHQVTVLGEIKTGNSPVKQYFYETRCKEARPVKNGCRGIDDKHWNSQCKTSQTYVRALTSENNKLVGWRWIRIDTSCVCALSRKIGRT
modifications: Neurotrophin-3
SGNs
  total neurite length, total number of extremities, segments, and nodes per cell: not statistically significant

— patent US20230122991A1, “GROWTH FACTOR FORMULATION FOR CONDITION ASSOCIATED WITH OTIC EVENT” (OTONOMY, INC., priority 2020, published 2023)
